Measurements reported in article PMC7586811 (Journal of Clinical Pharmacology, 2020).
Where two headings read alike, the source gives them in different places.

How the values were obtained:
[1] = Safety and tolerability in healthy participants; type: in vivo, human; conditions: for TEAEs considered related to the drug: investigator assessment; for participants who experienced TEAEs: n = 18
[2] = clinical use; cited from earlier work
human OATP1B and OATP1B3 = conditions: in vitro; ref data on file, Incyte Corporation; cited from earlier work
other PI3K isoforms = conditions: cited from earlier work
P‐glycoprotein (P‐gp) [3] = conditions: in vitro; ref data on file, Incyte Corporation; cited from earlier work
major CYPs = conditions: earlier in vitro studies; cited from earlier work
[4] = phase 1/2 study; cited from earlier work
P‐glycoprotein (P‐gp) [5] = conditions: read-out: P‐gp inhibition IC50; in vitro; ref data on file, Incyte Corporation; cited from earlier work
CYP3A4 [6] = conditions: recombinant human CYP isozymes, earlier in vitro studies; cited from earlier work
[7] = not given; remark: listed apart in the source
[8] = dose range from 5 to 45 mg, relapsed or refractory B‐cell malignancies; cited from earlier work
[9] = cited from earlier work
CYP3A4 [10] = conditions: human liver microsomes; ref data on file, Incyte Corporation; cited from earlier work
[11] = concomitant rifampin 600 mg versus parsaclisib 20 mg alone
[12] = parsaclisib 20 mg single oral dose alone, fasted, healthy participants, n = 18
[13] = concomitant itraconazole 200 mg versus parsaclisib 10 mg alone
[14] = parsaclisib 10 mg single oral dose alone, fasted, healthy participants, n = 18

CO[C@H]1/C=C/O[C@@]2(C)Oc3c(C)c(O)c4c(O)c(c(/C=N/N5CCN(C)CC5)c(O)c4c3C2=O)NC(=O)/C(C)=C\C=C\[C@H](C)[C@H](O)[C@@H](C)[C@@H](O)[C@@H](C)[C@H](OC(C)=O)[C@@H]1C [rifampin, reference compound]
participants reporting generalized pruritus and maculopapular rash ([1]; of all 36 participants, all in cohort 2, considered related to rifampin): 5.6%

CCC(C)n1ncn(-c2ccc(N3CCN(c4ccc(OCC5COC(Cn6cncn6)(c6ccc(Cl)cc6Cl)O5)cc4)CC3)cc2)c1=O (stereo not shown) [itraconazole, Itraconazole, reference compound]
TEAEs considered related to the drug ([1]; healthy participants): No TEAE was considered related

C[C@H](Nc1ncnc2[nH]cnc12)c1cc2cccc(Cl)c2c(=O)n1-c1ccccc1 [duvelisib]
associated toxicities [2]: transaminitis (increased alanine and aspartate transaminase levels), colitis, diarrhea, and pneumonitis

CCOc1c([C@H](C)n2nc(C)c3c(N)ncnc32)cc(Cl)c(F)c1[C@@H]1CNC(=O)C1 [Parsaclisib]
decrease of AUC0‐∞ [11]: 77% | increase in geometric mean CL/F [11]: approximately 4.4 fold | reduction of Cmax [11]: 43% | shortening of mean t½,β [11]: 71% | CL/F, Geometric Mean [12]: 2.9 L/h | CL/F, Mean ± SD [12]: 3.0 ± 0.5 L/h | decrease in the exposure of parsaclisib (single 20‐mg dose, concomitant rifampin): approximately 4 fold | substrate of human OATP1B and OATP1B3 (human OATP1B and OATP1B3): not likely a substrate | selectivity relative to other PI3K isoforms (other PI3K isoforms): approximately 20 000 fold | P‐gp substrate: concentration at which efflux transport is saturated (P‐glycoprotein (P‐gp) [3]): > 100 µM | inhibition of major CYPs (major CYPs): not an inhibitor of major CYPs tested | dose‐limiting toxicities [4]: no dose‐limiting toxicities identified | IC50 (P‐glycoprotein (P‐gp) [5]): 18.1 µM | dose interruptions or reductions, discontinuations, serious AEs, deaths due to TEAEs ([1]; both cohorts): No dose interruptions or reductions, participant discontinuations, serious AEs, or deaths due to TEAEs | participants who experienced TEAEs ([1]; cohort 1: parsaclisib 10 mg + itraconazole 200 mg): 27.8% | participants with grade 4 TEAE (increased creatine phosphokinase) ([1]; cohort 2, day 44, not considered related to parsaclisib or rifampin): 5.6% | participants who experienced TEAEs ([1]; cohort 2: parsaclisib 20 mg + rifampin 600 mg): 44.4% | TEAEs considered related to the drug ([1]; healthy participants): No TEAE was considered related | participants reporting headache (most common TEAE) ([1]; of all 36 participants, all cases in cohort 2 (parsaclisib + rifampin)): 13.9% | overall safety and tolerability ([1]; single‐dose parsaclisib alone or combined with itraconazole or rifampin, healthy participants): safe and well tolerated | CYP isozyme responsible for metabolism (CYP3A4 [6]): primarily metabolized by CYP3A4 | decrease in geometric mean CL/F [7, 13]: approximately 51% | increase in geometric mean AUC0‐∞ [7, 13]: 107% | increase in geometric mean Cmax [7, 13]: 21% | prolongation of mean t½,β [7, 13]: 59% | reduction of mean Vz/F [7, 13]: approximately 24% | CL/F, Geometric Mean [7, 14]: 2.9 L/h | CL/F, Mean ± SD [7, 14]: 2.9 ± 0.3 L/h | increase in the exposure of parsaclisib ([7]; single 10‐mg dose, concomitant itraconazole): approximately 2 fold | dose‐exposure relationship at steady state [8]: linear | major metabolites in clinical plasma samples ([9]; clinical plasma samples, ref data on file, Incyte Corporation): no major metabolites were detected | human‐specific metabolite ([9]; in vitro, rat, dog, and human): no human‐specific metabolite identified

CC[C@H](Nc1ncnc2[nH]cnc12)c1nc2cccc(F)c2c(=O)n1-c1ccccc1 [idelalisib]
associated toxicities [2]: transaminitis (increased alanine and aspartate transaminase levels), colitis, diarrhea, and pneumonitis

CC(=O)N1CCN(c2ccc(OCC3COC(Cn4ccnc4)(c4ccc(Cl)cc4Cl)O3)cc2)CC1 (stereo not shown) [ketoconazole]
effect on parsaclisib metabolism (CYP3A4 [10]): inhibited parsaclisib metabolism
